The values below come from ChEMBL document CHEMBL3588750 (Medchemcomm, 2014).

For assay [1], the target named is Somatostatin receptor type 4 (Homo sapiens, UniProt P31391). In words: Inhibition of radiolabeled somatostatin-14 binding to human recombinant SSTR4.
For assay [2], the target named is Somatostatin receptor type 5 (Homo sapiens, UniProt P35346). In words: Inhibition of radiolabeled somatostatin-14 binding to human recombinant SSTR5.
Sequence of Somatostatin receptor type 5 (P35346 whole entry): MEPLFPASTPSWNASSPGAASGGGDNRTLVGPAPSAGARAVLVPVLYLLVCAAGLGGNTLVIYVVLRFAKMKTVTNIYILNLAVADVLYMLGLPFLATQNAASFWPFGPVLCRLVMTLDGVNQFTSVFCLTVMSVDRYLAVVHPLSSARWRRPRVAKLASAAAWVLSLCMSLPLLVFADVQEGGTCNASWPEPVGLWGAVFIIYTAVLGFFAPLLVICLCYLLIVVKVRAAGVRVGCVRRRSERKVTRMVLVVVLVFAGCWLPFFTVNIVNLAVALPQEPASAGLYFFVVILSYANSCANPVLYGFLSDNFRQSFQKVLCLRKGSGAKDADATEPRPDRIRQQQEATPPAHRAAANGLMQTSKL

Sequence of Somatostatin receptor type 4 (P31391 whole entry): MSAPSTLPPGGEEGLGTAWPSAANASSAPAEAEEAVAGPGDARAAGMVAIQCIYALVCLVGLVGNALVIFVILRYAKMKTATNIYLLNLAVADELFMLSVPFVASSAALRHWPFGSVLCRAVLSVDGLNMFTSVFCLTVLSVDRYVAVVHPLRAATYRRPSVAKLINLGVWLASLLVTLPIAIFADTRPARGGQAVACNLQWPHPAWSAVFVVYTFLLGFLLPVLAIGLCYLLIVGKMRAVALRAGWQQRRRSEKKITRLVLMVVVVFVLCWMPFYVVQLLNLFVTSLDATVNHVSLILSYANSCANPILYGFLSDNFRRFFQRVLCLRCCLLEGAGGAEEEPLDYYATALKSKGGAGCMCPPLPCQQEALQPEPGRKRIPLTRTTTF

Turning to `NCCCCCOC[C@@H]1[C@@H](O)[C@H](O)[C@@H](O)CN1CCc1c[nH]c2ccccc12`, the Ki (in general, a measure of affinity in units of concentration, obtained from inhibition or displacement) was 3.2 µM in assay [1] (read-out: Ki) and “Not Active” in assay [2].
For `NCCCCC[C@@H]1[C@@H](O)[C@H](O)[C@@H](O)CN1Cc1ccc2ccccc2c1`, the Ki result in assay [1] is “Not Active”; in assay [2] (read-out: Ki), 34 µM.
Take `NCCCCC[C@@H]1[C@@H](OCc2ccccc2)[C@H](OCc2ccccc2)[C@@H](OCc2ccccc2)CN1Cc1ccc2ccccc2c1`: the Ki in assay [1] (read-out: Ki) stood at 1.9 µM; in assay [2] (read-out: Ki), 2 µM.
For `CC(=O)O[C@H]1[C@H](OC(C)=O)[C@@H](CCCCCN)N(Cc2ccc3ccccc3c2)C[C@@H]1OC(C)=O` the same measures were 5.4 µM and 7.7 µM.
